In patent US12433882B2, “Treatments for amyotrophic lateral sclerosis using dazucorilant” (Corcept Therapeutics Incorporated, priority 2022, dated 2025):

Test system: effect of prednisone on eosinophils, lymphocytes, neutrophils, osteocalcin
Test: First In Human study Part 3, proof of pharmacological effect (prednisone challenge)
Format: in vivo
Excerpt: Linear mixed model of PD parameter estimates from part 3 of the FIE study, including terms for treatment fitted as a fixed effect, subject fitted as a random effect, and baseline concentration values fitted as a covariate. AUEC, area under the effect curve; cfb, change from baseline; CI, confidence interval; Emax, maximum change; ns, not significant.

C[C@]12C=CC(=O)C=C1CC[C@@H]1[C@@H]2C(=O)C[C@@]2(C)[C@H]1CC[C@]2(O)C(=O)CO [Prednisone, prednisone]
EOSINOPHILS AUEC(0-24) cfb (adjusted arithmetic mean) (Prednisone (25 mg) alone): −2.80 109*h/L
LYMPHOCYTES AUEC(0-24) cfb (adjusted arithmetic mean) (Prednisone (25 mg) alone): −2.470 109*h/L
NEUTROPHILS AUEC(0-24) cfb (adjusted arithmetic mean) (Prednisone (25 mg) alone): 74.7 109*h/L
effect of a single dose on eosinophils, lymphocytes, osteocalcin and neutrophils (single dose of prednisone): decreased eosinophils, lymphocytes, and osteocalcin, and increased neutrophils
